The numbers were not newly measured in patent publication US7067315B2, “Identification of anti-protozoal agents” (President and Fellows of Harvard College, priority 2001, dated 2006), which cites them from elsewhere.

The data set has as its system Apicomplexan parasites. Conditions: several Apicomplexan parasites; by net actin filament depolymerization.

Structures are written as SMILES.

Turning to `C=C1[C@@H](C)[C@H]2[C@H](Cc3ccccc3)NC(=O)[C@]23[C@H](OC(C)=O)/C=C/[C@@](C)(O)C(=O)[C@@H](C)C/C=C/[C@H]3[C@@H]1O` [cytochalsin D], the “inhibition of parasite motility and invasion” value was “inhibits parasite motility and invasion”.
